Reference: patent US9040033B2, “Hydroxypropyl methyl cellulose acetate succinate with enhanced acetate and succinate substitution” (Dow Global Technologies LLC, priority 2010, dated 2015)

Key:
[1] = Microcentrifuge dissolution of 25 wt % phenytoin spray-dried dispersions in MFDS; format: physicochemical; conditions: dissolved phenytoin; SDD or bulk in MFDS pH 6.5, 37° C.
From the text: In another separate embodiment, compositions containing the HPMCAS polymers are concentration enhancing. The term “concentration enhancing” means that the polymer is present in a sufficient amount in the composition so as to improve, or increase, the concentration of dissolved active agent in an aqueous use environment relative to a control composition free from the polymer. As used herein, a “use environment” can be either the in vivo environment of the gastrointestinal tract, subdermal, intranasal, buccal, intrathecal, ocular, intraaural, subcutaneous spaces, vaginal tract, arterial and venous blood vessels, pulmonary tract or intramuscular tissue of an animal, such as a mammal and particularly a human, or the in vitro environment of a test solution, such as phosphate buffered saline (PBS), simulated intestinal buffer without enzymes (SIN), a Model Fasted Duodenal (MFD) solution, or a solution to model the fed state. Concentration enhancement may be determined through either in vitro dissolution tests or through in vivo tests. It has been determined that enhanced active agent concentrations in in vitro dissolution tests in such in vitro test solutions provide good indicators of in vivo performance and bioavailability. An appropriate PBS solution is an aqueous solution comprising 20 mM sodium phosphate (Na2HPO4), 47 mM potassium phosphate (KH2PO4), 87 mM NaCl, and 0.2 mM KCl, adjusted to pH 6.5 with NaOH. An appropriate SIN solution is 50 mM KH2PO4 adjusted to pH 7.4. […] In particular, a composition may be dissolution-tested by adding it to an in vitro test solution and agitating to promote dissolution, or by performing a membrane-permeation test as described in U.S. Published Patent Application No. 2008/0262107, which is incorporated herein by reference. Spray-dried dispersions (SDDs) comprising 25 wt % phenyloin in HPMCAS-K(3), HPMCAS-K(1), HPMCAS-HG, and HPMCAS-LG were prepared as described in section VIII. […] Dissolved concentrations were measured by HPLC.

[2] = Phenytoin precipitation inhibition in PBS containing dissolved polymer; format: physicochemical; conditions: PBS pH 6.5, 37° C., 500 μg/mL if all dissolved
Procedure: Phenyloin was dissolved in methanol at a concentration of 18 mg/mL. The polymers were dissolved in PBS (20 mM sodium phosphate (Na2HPO4), 47 mM potassium phosphate (KH2PO4), 87 mM NaCl, and 0.2 mM KCl, adjusted to pH 6.5 with NaOH) at a concentration of 1.5 mg/mL. […] HPLC was performed using a ZORBAX® RX-C18 column (4.6×75 mm, 3.5 μm, Agilent Technologies) and a mobile phase comprising 0.2% H3PO4 in water, at a flow rate of 1.0 mL/min; 10 μL of each solution was injected. […] HPMCAS-K(3) and HPMCAS-LG have similar degrees of succinate substitution ([…], respectively (see Table 7)), but greatly different degrees of acetate substitution (1.41 and 0.47, respectively).

O=C1NC(=O)C(c2ccccc2)(c2ccccc2)N1 [Phenytoin bulk, Phenytoin]
AUC90 [1]: 3,500 min * μg/mL | C1200 [1]: 40 µg/mL | Cmax90 [1]: 40 µg/mL | C1200 ([2]; dissolved phenytoin at 1200 min): 80 µg/mL | AUC90 ([2]; dissolved phenytoin, 0-90 min): 6,500 min * μg/mL | Cmax90 ([2]; dissolved phenytoin, maximum in first 90 min): 120 µg/mL
